Test results as given in patent US20250170126A1 (MITSUBISHI TANABE PHARMA CORPORATION, priority 2022, published 2025).

The compounds below were run against Human B0AT1 (Homo sapiens (Human), UniProt Q695T7) (assay: hB0AT1 inhibitory test (phenylalanine uptake)). Conditions: Human B0AT1 stable expression CHO cells; [3H]-L-phenylalanine uptake, phenylalanine 0.25 mM.
Type: cell-based
Description: A test compound dissolved in dimethyl sulfoxide (DMSO) was added to a 96 well plate for solid phase radioactivity measurement containing a scintillator at the bottom of the well (final concentration of DMSO 0.5%). DMSO alone as a control and DMSO containing N-(4-bromophenyl)-3,5-dichloro-2-hydroxybenzamide (final concentration […]) for the is measurement of B0AT1 non-specific uptake were similarly added at 0.5 μL per well. Human B0AT1 stable expression CHO cells suspended in a buffer (buffer containing 96 mM sodium chloride, 2 mM potassium chloride, 1.8 mM calcium chloride, 1 mM magnesium chloride, 0.01% bovine serum albumin, and 10 mM 2-[4-(2-hydroxyethyl)-1-piperazinyl]ethanesulfonic acid) were added by 90 μL to 75000 cells/well. After standing at ordinary temperature for 30 min or longer, the cells were subjected to a phenylalanine uptake experiment. A buffer containing L-phenylalanine and [3,4,5-3H]-L-phenylalanine was added by 10 μL per well (final concentration of phenylalanine 0.25 mM), and the radioactivity of the plate bottom surface at ordinary temperature was measured with a scintillation counter over time, and the radioactivity value after 100 to 200 min was analyzed. A value obtained by subtracting the B0AT1 non-specific uptake from the control uptake was taken as 100%, and the concentration necessary for each test compound to achieve 50% inhibition (IC50 value) was determined by nonlinear regression using a logistic model.

Chain of Human B0AT1 (Q695T7 whole entry): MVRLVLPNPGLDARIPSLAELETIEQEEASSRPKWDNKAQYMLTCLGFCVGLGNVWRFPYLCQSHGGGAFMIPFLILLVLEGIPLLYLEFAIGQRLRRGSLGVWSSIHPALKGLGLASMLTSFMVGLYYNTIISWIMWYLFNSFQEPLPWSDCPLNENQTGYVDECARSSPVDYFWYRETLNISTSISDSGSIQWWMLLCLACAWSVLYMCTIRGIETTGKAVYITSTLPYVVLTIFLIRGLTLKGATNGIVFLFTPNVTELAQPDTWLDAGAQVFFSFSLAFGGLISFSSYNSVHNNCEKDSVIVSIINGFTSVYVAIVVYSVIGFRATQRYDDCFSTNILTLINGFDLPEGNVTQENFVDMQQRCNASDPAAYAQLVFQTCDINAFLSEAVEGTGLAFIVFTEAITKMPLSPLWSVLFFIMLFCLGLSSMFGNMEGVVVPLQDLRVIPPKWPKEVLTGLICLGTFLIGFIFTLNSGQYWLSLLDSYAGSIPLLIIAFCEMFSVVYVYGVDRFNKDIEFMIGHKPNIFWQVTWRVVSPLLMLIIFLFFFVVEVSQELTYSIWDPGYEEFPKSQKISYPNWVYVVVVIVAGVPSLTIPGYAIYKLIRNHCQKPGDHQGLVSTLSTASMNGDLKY

Row | Structure (SMILES) | IC50 [nM]
1 | CNC(=O)[C@H]1CN(C)CCN1C(=O)CNC(=O)/C=C/c1ccc(C(F)(F)F)cc1 [I-139, (2R)-N,4-dimethyl-1-[2-[[(E)-3-[4-(trifluoromethyl)phenyl]prop-2-enoyl]amino]acetyl]piperazine-2-carboxamide] | 133
2 | O=C(/C=C/c1ccc(C(F)(F)F)cc1)NCC(=O)N1CCc2nc(C(=O)O)ccc2C1 [I-263] | 200
3 | CN1[C@@H]2CC[C@H]1CN(C(=O)CNC(=O)/C=C/c1ccc(C(F)(F)F)cc1)C2 [I-122] | 640
4 | N#Cc1ccc2c(c1)CN(C(=O)CNC(=O)/C=C/c1ccc(C(F)(F)F)cc1)CC2 [I-197] | 25
5 | O=C(/C=C/c1ccc(C(F)(F)F)cc1)NCC(=O)N1CCn2nc(C(=O)O)c(-c3ccc(F)cc3)c2C1 [I-267] | 83
6 | O=C(/C=C/c1ccc(C(F)(F)F)cc1)NCC(=O)N1CCc2c(cccc2C(F)(F)F)C1 [I-194] | 140
7 | O=C(/C=C/c1ccc(C(F)(F)F)cc1)NCC(=O)N1CCc2ccc(Br)cc2C1 [I-195] | 54
8 | CN(C)C(=O)c1cn2c(n1)CN(C(=O)CNC(=O)/C=C/c1ccc(C(F)(F)F)cc1)CC2 [I-146] | 93
9 | CCOc1ccc(/C=C/C(=O)NCC(=O)N2CCN(C)CC2)cc1 [I-117] | 199
10 | O=C(/C=C/c1ccc(C(F)(F)F)cc1)NCC(=O)N1CCC(c2cccnc2)C1 (stereo not shown) [I-71] | 1340
11 | O=C(/C=C/c1ccc(C(F)(F)F)cc1)NCC(=O)N1CCn2cc(C(=O)O)nc2C1 [I-140, 7-[2-[[(E)-3-[4-(trifluoromethyl)phenyl]prop-2-enoyl]amino]acetyl]-6,8-dihydro-5H-imidazo[1,2-a]pyrazine-2-carboxylic acid] | 328
12 | O=C(/C=C/c1ccc(C(F)(F)F)cc1)NCC(=O)N1CCc2nnccc2C1 [I-99] | 64
13 | CN1CCCN(C(=O)CNC(=O)/C=C/c2ccc(C(F)(F)F)cc2)CC1 [I-3] | 40
14 | Cn1ncc2c1CN(C(=O)CNC(=O)/C=C/c1ccc(C(F)(F)F)cc1)C2 [I-66] | 122
15 | O=C(/C=C/c1ccc(C(F)(F)F)cc1)NCC(=O)N1CCn2ncnc2C12CC2 [I-207] | 324
16 | CNC(=O)c1cc2n(n1)CCN(C(=O)CNC(=O)/C=C/c1ccc(C(F)(F)F)cc1)C2 [I-203] | 45
17 | O=C(/C=C/c1ccc(C(F)(F)F)cc1)NCC(=O)N1CCCn2ccnc2C1 [I-179] | 60
18 | O=C(/C=C/c1ccc(C(F)(F)F)cc1)NCC(=O)N1CCCc2cnccc21 [I-186] | 10
19 | O=C(/C=C/c1ccc(C(F)(F)F)cc1)NCC(=O)N(CCO)Cc1ccccn1 [I-85] | 186
20 | COCC(C)N(Cc1nnc(C)o1)C(=O)CNC(=O)/C=C/c1ccc(C(F)(F)F)cc1 (stereo not shown) [I-210] | 165
21 | O=C(/C=C/c1ccc(C(F)(F)F)cc1)NCC(=O)N1CCn2cncc2C1 [I-23] | 112
22 | Cc1nnc(CN(CC2(F)CC2)C(=O)CNC(=O)/C=C/c2ccc(C(F)(F)F)cc2)o1 [I-209] | 32
23 | O=C(/C=C/c1ccc(C(F)(F)F)cc1)NCC(=O)N1CCn2ncnc2C1 [I-35] | 51
24 | O=C(/C=C/c1ccc(C(F)(F)F)cc1)NCC(=O)N1CCn2nc(C(F)(F)F)nc2C1 [I-172] | 44
25 | CNC(=O)c1cnn2c1CN(C(=O)CNC(=O)/C=C/c1ccc(C(F)(F)F)cc1)CC2 [I-225] | 44

Row | Structure (SMILES) | IC50 [nM]
26 | O=C(/C=C/c1ccc(C(F)(F)F)cc1)NCC(=O)N1CCc2[nH]nnc2C1 [I-98] | 78
27 | CN(C)C(=O)c1nc2n(n1)CCN(C(=O)CNC(=O)/C=C/c1ccc(C(F)(F)F)cc1)C2 [I-206] | 77
28 | O=C(/C=C/c1ccc(C(F)(F)F)cc1)NCC(=O)N1CCOC(c2ccccc2)C1 (stereo not shown) [I-14] | 815
29 | O=C(/C=C/c1ccc(C(F)(F)F)cc1)NCC(=O)N1CCn2ncc(C(=O)N3CCC(F)(F)C3)c2C1 [I-280] | 49
30 | CN(CCS(C)(=O)=O)C(=O)CNC(=O)/C=C/c1ccc(C(F)(F)F)cc1 [I-46] | 181
31 | CCCOc1ccc(/C=C/C(=O)NCC(=O)N2CCN(C)CC2)cc1 [I-108] | 104
32 | COc1ccc2c(n1)CN(C(=O)CNC(=O)/C=C/c1ccc(C(F)(F)F)cc1)CC2 [I-94] | 40
33 | O=C(/C=C/c1ccc(C(F)(F)F)cc1)NCC(=O)N1CCN2C(=O)CCC2C1 (stereo not shown) [I-43] | 80
34 | O=C(/C=C/c1ccc(C(F)(F)F)cc1)NCC(=O)N1CCc2cccc(C(F)(F)F)c2C1 [I-191] | 31
35 | CN1CCN(C(=O)CNC(=O)/C=C/c2ccc(-c3cccnc3)cc2)CC1 [I-111] | 471
36 | O=C(/C=C/c1ccc(C(F)(F)F)cc1)NCC(=O)N1CC[C@@H](Cn2cccn2)C1 [I-214] | 728
37 | O=C(/C=C/c1ccc(C(F)(F)F)cc1)NCC(=O)N1CCn2nccc21 [I-180] | 20
38 | O=C(/C=C/c1ccc(OC(F)F)cc1)NCC(=O)N1CCn2nccc2C1 [I-89] | 94
39 | COCCN(Cc1ccccn1)C(=O)CNC(=O)/C=C/c1ccc(C(F)(F)F)cc1 [I-50] | 81
40 | O=C(/C=C/c1ccc(C(F)(F)F)cc1)NCC(=O)N1CCCn2ncnc2C1 [I-72] | 317
41 | O=C(/C=C/c1ccc(C(F)(F)F)cc1)NCC(=O)N1CCc2ccc(C(=O)O)cc2C1 [I-270] | 168
42 | O=C(/C=C/c1ccc(C(F)(F)F)cc1)NCC(=O)N1C[C@H](O)C[C@@H]1c1ccccc1 [I-141, (E)-N-[2-[(2R,4R)-4-hydroxy-2-phenylpyrrolidin-1-yl]-2-oxoethyl]-3-[4-(trifluoromethyl)phenyl]prop-2-enamide] | 1720
43 | CN1CCN(C(=O)CNC(=O)/C=C/c2ccc(C3CC3)cc2)CC1 [I-110] | 98
44 | CN1CCN(C(=O)CNC(=O)/C=C/c2ccc(OC(F)(F)F)cc2)CC1=O [I-118] | 137
45 | CN1CCN(C(=O)CNC(=O)/C=C/c2ccc(OC(F)(F)F)cc2)CC1 [I-112] | 56
46 | O=C(/C=C/c1ccc(C(F)(F)F)cc1)NCC(=O)N1Cc2ccccc2C(c2ccccc2)C1 (stereo not shown) [I-183] | 80
47 | Cn1cnc2c1CN(C(=O)CNC(=O)/C=C/c1ccc(C(F)(F)F)cc1)CC2 [I-40] | 29
48 | O=C(/C=C/c1ccc(C(F)(F)F)cc1)NCC(=O)N1CCc2ccncc2C1 [I-36] | 15
49 | COCCN(CCS(C)(=O)=O)C(=O)CNC(=O)/C=C/c1ccc(C(F)(F)F)cc1 [I-51] | 386
50 | CC(O)c1cc2n(n1)CCN(C(=O)CNC(=O)/C=C/c1ccc(C(F)(F)F)cc1)C2 (stereo not shown) [I-208] | 50

Row | Structure (SMILES) | IC50 [nM]
51 | O=C(/C=C/c1ccc(C(F)(F)F)cc1)NCC(=O)N1CC[C@H](O)C1 [I-18] | 1660
52 | CN1CCN(C(=O)CNC(=O)/C=C/c2ccc(-c3cc(F)c(F)c(F)c3)cc2)CC1 [I-127] | 88
53 | CN(C)C(=O)CNC(=O)/C=C/c1ccc(C(F)(F)F)cc1 [I-104] | 2030
54 | CS(=O)(=O)[C@@H]1CCN(C(=O)CNC(=O)/C=C/c2ccc(C(F)(F)F)cc2)C1 [I-47] | 550
55 | Cc1cccc2c1CN(C(=O)CNC(=O)/C=C/c1ccc(C(F)(F)F)cc1)CC2 [I-193] | 50
56 | O=C(/C=C/c1ccc(C(F)(F)F)cc1)NCC(=O)N1CCc2c(cccc2C(=O)O)C1 [I-271] | 699
57 | COCCN(CC(=O)N(C)CCO)C(=O)CNC(=O)/C=C/c1ccc(C(F)(F)F)cc1 [I-148, (E)-N-[2-[[2-[2-hydroxyethyl(methyl)amino]-2-oxoethyl]-(2-methoxyethyl)amino]-2-oxoethyl]-3-[4-(trifluoromethyl)phenyl]prop-2-enamide] | 259
58 | Cc1noc([C@@H]2CCN(C(=O)CNC(=O)/C=C/c3ccc(C(F)(F)F)cc3)C2)n1 [I-69] | 1470
59 | O=C(/C=C/c1ccc(C(F)(F)F)cc1)NCC(=O)N1CCN2C(=O)NCC2C1 (stereo not shown) [I-44] | 261
60 | Cc1cc2n(n1)CCCN2C(=O)CNC(=O)/C=C/c1ccc(C(F)(F)F)cc1 [I-184] | 47
61 | O=C(/C=C/c1ccc(C(F)(F)F)cc1)NCC(=O)N1CC[C@@H](n2cccn2)C1 [I-177] | 87
62 | O=C(/C=C/c1ccc(C(F)(F)F)cc1)NCC(=O)N1CCn2ncc(C(=O)O)c2C1 [I-274] | 531
63 | CNS(=O)(=O)c1ccc2c(c1)CCN(C(=O)CNC(=O)/C=C/c1ccc(C(F)(F)F)cc1)C2 [I-221] | 44
64 | O=C(/C=C/c1ccc(C(F)(F)F)cc1)NCC(=O)N1CCc2cc(Br)ccc21 [I-260] | 24
65 | O=C(/C=C/c1ccc(C(F)(F)F)cc1)NCC(=O)N1CCn2ncc(C(=O)N3CCCC3)c2C1 [I-222] | 33
66 | O=C(/C=C/c1ccc(C(F)(F)F)cc1)NCC(=O)N1CCc2ncsc2C1 [I-34] | 21
67 | O=C(/C=C/c1ccc(C(F)(F)F)cc1)NCC(=O)N1CCc2nccn2CC1 [I-64] | 195
68 | O=C(/C=C/c1ccc(C(F)(F)F)cc1)NCC(=O)N1CCn2ncc(Br)c2C1 [I-96] | 10
69 | O=C(/C=C/c1ccc(C(F)(F)F)cc1)NCC(=O)N1CCNC(=O)C1 [I-1, (E)-N-[2-oxo-2-(3-oxopiperazin-1-yl)ethyl]-3-[4-(trifluoromethyl)phenyl]prop-2-enamide] | 107
70 | O=C(/C=C/c1ccc(C(F)(F)F)cc1)NCC(=O)N1CCc2ncncc2C1 [I-78] | 56
71 | CN1CCN(C(=O)CNC(=O)/C=C/c2ccc(-c3ccc(C(F)(F)F)cc3)cc2)CC1 [I-128] | 678
72 | Cc1nc(-c2ccc(/C=C/C(=O)NCC(=O)N3CCN(C)CC3)cc2)no1 [I-107] | 1160
73 | COCCN(Cc1ncc(C)s1)C(=O)CNC(=O)/C=C/c1ccc(C(F)(F)F)cc1 [I-56] | 67
